{"source": "patent US7875647B2", "about": "“Heteroaryl-pyrazole derivatives as cannabinoid CB1 receptor antagonists” (Green Cross Corporation, priority 2006, dated 2011)", "data": [{"target": "T1, Cannabinoid-1 receptor (CB1R) (Rattus norvegicus, UniProt P20272)", "T1 construct": "The tissue obtained from the brain of SD rats was homogenized; from tissue; host or cells: brain of SD rats (membrane pellet of the homogenate)", "T1 sequence (P20272 whole entry)": "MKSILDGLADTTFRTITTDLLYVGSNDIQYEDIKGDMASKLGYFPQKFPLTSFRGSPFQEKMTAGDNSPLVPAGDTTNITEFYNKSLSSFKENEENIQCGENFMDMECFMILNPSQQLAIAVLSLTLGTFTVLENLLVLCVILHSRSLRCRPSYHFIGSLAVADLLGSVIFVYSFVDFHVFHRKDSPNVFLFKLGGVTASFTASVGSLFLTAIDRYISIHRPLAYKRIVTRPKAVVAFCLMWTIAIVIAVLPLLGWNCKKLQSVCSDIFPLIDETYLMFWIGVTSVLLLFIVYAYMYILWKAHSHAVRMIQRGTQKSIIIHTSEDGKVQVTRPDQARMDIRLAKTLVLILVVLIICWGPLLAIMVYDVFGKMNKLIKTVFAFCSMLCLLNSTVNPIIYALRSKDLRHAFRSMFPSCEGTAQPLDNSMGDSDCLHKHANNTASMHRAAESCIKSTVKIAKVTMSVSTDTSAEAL", "test": "Cannabinoid-1 receptor (CB1R) binding affinity assay ([3H]CP-55940, rat CB-1 receptor binding protocol)", "conditions": "brain tissue of SD rats, [3H]CP-55940, 30° C. 60 min; read-out: IC50", "procedure": "The tissue obtained from the brain of SD rats was homogenized with a Dounce homogenate system in TME (50 mM Tris, 3 mM MgCl2 and 1 mM EDTA, pH 7.4) at 4° C., and the homogenate was centrifuged at 48,000 g for 30 min. at 4° C. The pellet was resuspended in 5 ml of TME and the suspension was divided into aliquots and stored at −70° C. until its use in the following assay.\nThe tissue concentrations were determined by Bradford protein analysis, and 148 μl of brain tissue of the required concentration was added to the plate. The plate was covered and placed in a 30° C. incubator for 60 min, and then transformed on GF/B filtermat pretreated in polyethylenimine (PEI) using a cell harvester. Each filter was washed five times and dried at 60° C. for 1 hr. Then, the degree of radioactivity retained by the filter was measured using Wallac Microbeta™ (PerkinElmer Life Sciences, Inc., Massachusetts, U.S.A.) and the activity of the compound for inhibiting CB1 receptor was determined therefrom.", "units": {"IC50": "µM"}, "values": [{"molecule": "2-(1-benzylcyclopropyl)-5-(5-(4-bromophenyl)-1-(2,4-dichlorophenyl)-4-ethyl-1H-pyrazol-3-yl)-1,3,4-oxadiazole [Example 271]", "IC50": 0.00588}, {"molecule": "2-(1-benzylcyclopropyl)-5-(5-(4-chlorophenyl)-1-(2,4-dichlorophenyl)-4-methyl-1H-pyrazol-3-yl)-1,3,4-thiadiazole [Example 467]", "IC50": 0.0148}, {"molecule": "2-(5-(4-chlorophenyl)-1-(2,4-dichlorophenyl)-4-methyl-1H-pyrazol-3-yl)-5-cyclohexyl-1,3,4-thiadiazole [Example 347]", "IC50": 0.0513}, {"molecule": "5-(5-(4-Chlorophenyl)-1-(2,4-dichlorophenyl)-4-methyl-1H-pyrazol-3-yl)-1-cycloheptyl-1H-tetrazole [Example 601]", "IC50": 0.0267}, {"molecule": "5-(5-(4-Chlorophenyl)-1-(2,4-dichlorophenyl)-4-methyl-1H-pyrazol-3-yl)-1-octyl-1H-tetrazole [Example 604]", "IC50": 0.0473}, {"molecule": "Cc1c(-c2nnc(-c3ccncc3)o2)nn(-c2ccc(Cl)cc2Cl)c1-c1ccc(Cl)cc1", "note": "[Example 2, 2-(5-(4-chlorophenyl)-1-(2,4-dichlorophenyl)-4-methyl-1H-pyrazol-3-yl)-5-(pyridin-4-yl)-1,3,4-oxadiazole]", "IC50": 0.563}, {"molecule": "Cc1c(-c2nnc(-c3ccco3)o2)nn(-c2ccc(Cl)cc2Cl)c1-c1ccc(Cl)cc1", "note": "[Example 8, 2-(5-(4-chlorophenyl)-1-(2,4-dichlorophenyl)-4-methyl-1H-pyrazol-3-yl)-5-(furan-2-yl)-1,3,4-oxadiazole]", "IC50": 0.112}, {"molecule": "Cc1c(-c2nnc(-c3cnccn3)o2)nn(-c2ccc(Cl)cc2Cl)c1-c1ccc(Cl)cc1", "note": "[Example 10, 2-(5-(4-chlorophenyl)-1-(2,4-dichlorophenyl)-4-methyl-1H-pyrazol-3-yl)-5-(pyrazin-2-yl)-1,3,4-oxadiazole]", "IC50": 0.196}, {"molecule": "Cc1c(-c2nnc(-c3cccs3)o2)nn(-c2ccc(Cl)cc2Cl)c1-c1ccc(Cl)cc1", "note": "[Example 11, 2-(5-(4-chlorophenyl)-1-(2,4-dichlorophenyl)-4-methyl-1H-pyrazol-3-yl)-5-(thiophen-2-yl)-1,3,4-oxadiazole]", "IC50": 0.0966}, {"molecule": "Cc1c(-c2nnc(-c3cc4ccccc4o3)o2)nn(-c2ccc(Cl)cc2Cl)c1-c1ccc(Cl)cc1", "note": "[Example 18, 2-(Benzofuran-2-yl)-5-(5-(4-chlorophenyl)-1-(2,4-dichlorophenyl)-4-methyl-1H-pyrazol-3-yl)-1,3,4-oxadiazole]", "IC50": 0.333}, {"molecule": "Cc1c(-c2nnc(CC3CCCC3)o2)nn(-c2ccc(Cl)cc2Cl)c1-c1ccc(Cl)cc1", "note": "[Example 22, 2-(5-(4-Chlorophenyl)-1-(2,4-dichlorophenyl)-4-methyl-1H-pyrazol-3-yl)-5-(cyclopentylmethyl)-1,3,4-oxadiazole]", "IC50": 0.0357}, {"molecule": "Cc1c(-c2nnc(C3CCOCC3)o2)nn(-c2ccc(Cl)cc2Cl)c1-c1ccc(Cl)cc1", "note": "[Example 23, 2-(5-(4-Chlorophenyl)-1-(2,4-dichlorophenyl)-4-methyl-1H-pyrazol-3-yl)-5-(tetrahydro-2H-pyran-4-yl)-1,3,4-oxadiazole]", "IC50": 0.163}, {"molecule": "Cc1c(-c2nnc(CC3CCCCC3)o2)nn(-c2ccc(Cl)cc2Cl)c1-c1ccc(Cl)cc1", "note": "[Example 24, 2-(5-(4-Chlorophenyl)-1-(2,4-dichlorophenyl)-4-methyl-1H-pyrazol-3-yl)-5-(cyclohexylmethyl)-1,3,4-oxadiazole]", "IC50": 0.0227}, {"molecule": "Cc1c(-c2nnc(C3CCCO3)o2)nn(-c2ccc(Cl)cc2Cl)c1-c1ccc(Cl)cc1", "note": "(stereo not drawn) [Example 25, 2-(5-(4-Chlorophenyl)-1-(2,4-dichlorophenyl)-4-methyl-1H-pyrazol-3-yl)-5-(tetrahydrofuran-2-yl)-1,3,4-oxadiazole]", "IC50": 0.06}, {"molecule": "Cc1c(-c2nnc(C3CC4CCC3C4)o2)nn(-c2ccc(Cl)cc2Cl)c1-c1ccc(Cl)cc1", "note": "(stereo not drawn) [Example 52, 2-(bicyclo[2.2.1]heptan-2-yl)-5-(5-(4-chlorophenyl)-1-(2,4-dichlorophenyl)-4-methyl-1H-pyrazol-3-yl)-1,3,4-oxadiazole]", "IC50": 0.0127}]}]}
